Measured values from patent US20240199635A1, “TETRAHYDROTHIENO PYRIDINE DERIVATIVES AS DDRS INHIBITORS” (CHIESI FARMACEUTICI S.P.A., priority 2021, published 2024).

How the values were obtained:
DDR1 [1] = molecular target: T1, DDR1 (Homo sapiens (Human), UniProt Q08345); experiment: DDR1 binding assay (LanthaScreen Europium Kinase Binding assay); conditions: potency class, read-out: Ki DDR1
Method: (§1) DDR1 and DDR2 binding assays were performed using Life Technologies LanthaScreen™ Europium Kinase Binding assay. The compounds were incubated with 5 nM DDR1 (Carna Biosciences) or 5 nM DDR2 (Life Technologies) for 1 hour at room temperature in white 384-well OptiPlate (PerkinElmer), containing 20 nM or 10 nM Kinase Tracer 178 respectively and 2 nM Europium labelled anti-GST antibody (Life Technologies) in assay buffer (50 mM HEPES pH 7.5, 10 mM MgCl2, 1 mM EGTA and 0.01% BRIJ35).
(§2) The ratio of fluorescence emission 665 nm/615 nm after excitation at 340 nm was obtained using the Tecan Spark 20M plate reader. IC50 values were determined in GraphPad Prism 7.0 software, using 4 parameter model: log(inhibitor) vs. response. IC50 values were converted in Ki using the Cheng-Prusoff equation (Ki=IC50/(1+[Tracer]/Kd).

DDR2 = DDR2 (Homo sapiens (Human), UniProt Q16832); experiment: DDR2 binding assay (LanthaScreen Europium Kinase Binding assay); conditions: potency class, read-out: Ki DDR2
Method: as §1, §2

DDR1 [2] = molecular target: T1, DDR1; experiment: DDR1 cell based assay (PathHunter U2OS DDR1 assay); conditions: U2OS-DDR1 cells, Type II Collagen stimulation, potency class
Method: The inhibition of DDR1 receptor activation by compounds was evaluated by PathHunter® U2OS DDR1 assay (Eurofins DiscoverX), according to the manufacturer's instructions. Briefly, U2OS-DDR1 cells were seeded in white 384-well plates at a density of 5000 cells/well and incubated for 2 hours at 37° C. and 5% CO2. Cells were then treated with compounds at different concentrations and incubated for 30 minutes, before stimulation with bovine Type II Collagen 20 μg/ml and incubation overnight at 37° C. and 5% CO2. PathHunter Detection Reagents were prepared according to the protocol provided by DiscoverX and 20 μl/well of this mix were added to each well. After incubating the plates for 1 hour at room temperature in the dark, luminescence signal was acquired with a plate reader. Raw data were normalized to vehicle control (0% for normalization) and positive control (100% for normalization; cells treated with 20 μg/ml collagen II) and IC50 parameters were calculated in GraphPad Prism 8.0 software, using sigmoidal dose-response curve fitting with variable slope.

DDR2, sequence (Q16832 22-855): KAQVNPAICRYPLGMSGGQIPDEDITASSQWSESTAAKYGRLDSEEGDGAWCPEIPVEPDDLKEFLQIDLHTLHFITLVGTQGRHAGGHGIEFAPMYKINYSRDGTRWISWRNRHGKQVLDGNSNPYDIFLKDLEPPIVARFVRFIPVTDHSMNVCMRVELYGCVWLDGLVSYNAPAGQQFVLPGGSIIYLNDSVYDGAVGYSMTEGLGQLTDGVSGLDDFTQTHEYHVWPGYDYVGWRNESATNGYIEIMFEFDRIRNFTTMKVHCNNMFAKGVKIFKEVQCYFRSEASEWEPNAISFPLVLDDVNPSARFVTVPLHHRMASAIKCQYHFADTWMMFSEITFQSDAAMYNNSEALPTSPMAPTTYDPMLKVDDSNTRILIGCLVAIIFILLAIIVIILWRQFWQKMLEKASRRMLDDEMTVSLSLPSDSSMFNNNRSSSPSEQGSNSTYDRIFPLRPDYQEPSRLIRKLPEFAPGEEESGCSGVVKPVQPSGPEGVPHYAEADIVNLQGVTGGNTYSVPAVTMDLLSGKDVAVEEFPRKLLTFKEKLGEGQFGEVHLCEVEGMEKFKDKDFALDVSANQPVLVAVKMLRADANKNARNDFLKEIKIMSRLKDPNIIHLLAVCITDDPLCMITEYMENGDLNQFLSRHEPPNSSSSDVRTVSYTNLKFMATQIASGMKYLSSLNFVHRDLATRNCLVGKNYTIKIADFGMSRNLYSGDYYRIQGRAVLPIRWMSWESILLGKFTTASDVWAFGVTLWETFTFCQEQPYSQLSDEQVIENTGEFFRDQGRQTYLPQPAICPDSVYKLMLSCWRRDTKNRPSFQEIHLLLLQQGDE
T1 sequence (Q08345 19-913): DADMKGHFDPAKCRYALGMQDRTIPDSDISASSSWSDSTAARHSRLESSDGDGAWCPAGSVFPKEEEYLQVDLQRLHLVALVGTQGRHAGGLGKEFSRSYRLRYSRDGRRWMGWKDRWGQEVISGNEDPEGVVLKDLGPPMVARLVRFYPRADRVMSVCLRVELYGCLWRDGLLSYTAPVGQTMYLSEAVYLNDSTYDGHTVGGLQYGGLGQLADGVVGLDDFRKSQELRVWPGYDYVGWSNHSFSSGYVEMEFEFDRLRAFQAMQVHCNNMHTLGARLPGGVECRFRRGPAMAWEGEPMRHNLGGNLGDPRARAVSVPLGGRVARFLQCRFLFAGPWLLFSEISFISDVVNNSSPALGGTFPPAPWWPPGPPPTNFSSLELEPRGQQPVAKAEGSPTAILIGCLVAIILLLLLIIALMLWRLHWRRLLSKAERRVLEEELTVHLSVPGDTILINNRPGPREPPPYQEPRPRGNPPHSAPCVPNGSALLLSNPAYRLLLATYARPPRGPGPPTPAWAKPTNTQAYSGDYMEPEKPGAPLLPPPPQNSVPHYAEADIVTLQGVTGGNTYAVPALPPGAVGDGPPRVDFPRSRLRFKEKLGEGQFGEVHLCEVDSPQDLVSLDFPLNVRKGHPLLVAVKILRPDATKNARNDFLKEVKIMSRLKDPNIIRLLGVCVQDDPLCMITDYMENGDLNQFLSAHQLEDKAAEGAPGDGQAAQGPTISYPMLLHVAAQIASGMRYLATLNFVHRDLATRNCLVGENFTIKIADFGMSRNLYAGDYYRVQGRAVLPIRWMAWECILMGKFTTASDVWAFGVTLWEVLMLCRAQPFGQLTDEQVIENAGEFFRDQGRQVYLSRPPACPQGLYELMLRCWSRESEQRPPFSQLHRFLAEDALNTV

Ki (DDR1 [1])	Ki (DDR2)	IC50 (DDR1 [2])	SMILES
< 25 nM	< 25 nM	< 25 nM	COc1cncc(CN2CCc3c(C(=O)Nc4cccc(C(F)(F)F)c4)csc3C2)c1 [Example 21, 6-((5-methoxypyridin-3-yl)methyl)-N-(3-(trifluoromethyl)phenyl)-4,5,6,7-tetrahydrothieno[2,3-c]pyridine-3-carboxamide]
< 25 nM	< 25 nM	25 to 50 nM	Cn1nc(C(C)(C)C)cc1NC(=O)c1csc2c1CCN(Cc1nccnc1N)C2 [Example 15, 6-((3-aminopyrazin-2-yl)methyl)-N-(3-(tert-butyl)-1-methyl-1H-pyrazol-5-yl)-4,5,6,7-tetrahydrothieno[2,3-c]pyridine-3-carboxamide]
< 25 nM	< 25 nM	50 to 80 nM	CN1CCN(c2cncc(CN3CCc4c(C(=O)Nc5cccc(C(F)(F)F)c5)csc4C3)c2)CC1=O [Example 29, 6-((5-(4-methyl-3-oxopiperazin-1-yl)pyridin-3-yl)methyl)-N-(3-(trifluoromethyl)phenyl)-4,5,6,7-tetrahydrothieno[2,3-c]pyridine-3-carboxamide]
< 25 nM	25 to 50 nM	25 to 50 nM	CN(C)Cc1cc(NC(=O)c2csc3c2CCN(Cc2cnc(N)nc2)C3)cc(C(F)(F)F)n1 [Example 57, 6-((2-aminopyrimidin-5-yl)methyl)-N-(2-((dimethylamino)methyl)-6-(trifluoromethyl)pyridin-4-yl)-4,5,6,7-tetrahydrothieno[2,3-c]pyridine-3-carboxamide]
< 25 nM	< 25 nM	< 25 nM	COc1cncc(CN2CCc3c(C(=O)Nc4cncc(C(F)(F)F)c4)csc3C2)c1 [Example 32, 6-((5-methoxypyridin-3-yl)methyl)-N-(5-(trifluoromethyl)pyridin-3-yl)-4,5,6,7-tetrahydrothieno[2,3-c]pyridine-3-carboxamide]
< 25 nM	25 to 50 nM	25 to 50 nM	CN(C)Cc1ccc(NC(=O)c2csc3c2CCN(Cc2cnc(N)nc2)C3)cc1C(F)(F)F [Example 56, 6-((2-aminopyrimidin-5-yl)methyl)-N-(4-((dimethylamino)methyl)-3-(trifluoromethyl)phenyl)-4,5,6,7-tetrahydrothieno[2,3-c]pyridine-3-carboxamide]
< 25 nM	< 25 nM	25 to 50 nM	N#Cc1cncc(CN2CCc3c(C(=O)Nc4cccc(C(F)(F)F)c4)csc3C2)c1 [Example 19, 6-((5-cyanopyridin-3-yl)methyl)-N-(3-(trifluoromethyl)phenyl)-4,5,6,7-tetrahydrothieno[2,3-c]pyridine-3-carboxamide]
< 25 nM	< 25 nM	25 to 50 nM	O=C(Nc1cncc(C(F)(F)F)c1)c1csc2c1CCN(Cc1cccnc1)C2 [Example 34, 6-(pyridin-3-ylmethyl)-N-(5-(trifluoromethyl)pyridin-3-yl)-4,5,6,7-tetrahydrothieno[2,3-c]pyridine-3-carboxamide]
< 25 nM	< 25 nM	< 25 nM	N#Cc1cc(NC(=O)c2csc3c2CCN(Cc2cnc(N)nc2)C3)cc(C(F)(F)F)c1 [Example 59, 6-((2-aminopyrimidin-5-yl)methyl)-N-(3-cyano-5-(trifluoromethyl)phenyl)-4,5,6,7-tetrahydrothieno[2,3-c]pyridine-3-carboxamide]
< 25 nM	< 25 nM	< 25 nM	Nc1nccnc1CN1CCc2c(C(=O)Nc3cccc(C(F)(F)F)c3)csc2C1 [Example 27, 6-((3-aminopyrazin-2-yl)methyl)-N-(3-(trifluoromethyl)phenyl)-4,5,6,7-tetrahydrothieno[2,3-c]pyridine-3-carboxamide]
< 25 nM	< 25 nM	50 to 80 nM	CC(F)(F)c1cccc(NC(=O)c2csc3c2CCN(Cc2cncnc2)C3)c1 [Example 9, N-(3-(1,1-difluoroethyl)phenyl)-6-(pyrimidin-5-ylmethyl)-4,5,6,7-tetrahydrothieno[2,3-c]pyridine-3-carboxamide]
< 25 nM	< 25 nM	< 25 nM	CNc1ccc(CN2CCc3c(C(=O)Nc4cc(F)cc(C(F)(F)F)c4)csc3C2)cn1 [Example 48, N-[3-fluoro-5-(trifluoromethyl)phenyl]-6-[[6-(methylamino)-3-pyridyl]methyl]-5,7-dihydro-4H-thieno[2,3-c]pyridine-3-carboxamide]
< 25 nM	< 25 nM	< 25 nM	CNc1ncc(CN2CCc3c(C(=O)Nc4cc(F)cc(C(F)(F)F)c4)csc3C2)cn1 [Example 40, N-(3-fluoro-5-(trifluoromethyl)phenyl)-6-((2-(methylamino)pyrimidin-5-yl)methyl)-4,5,6,7-tetrahydrothieno[2,3-c]pyridine-3-carboxamide]
< 25 nM	25 to 50 nM	25 to 50 nM	COCC(=O)Nc1ccncc1CN1CCc2c(C(=O)Nc3cccc(C(F)(F)F)c3)csc2C1 [Example 17, 6-((4-(2-methoxyacetamido)pyridin-3-yl)methyl)-N-(3-(trifluoromethyl)phenyl)-4,5,6,7-tetrahydrothieno[2,3-c]pyridine-3-carboxamide]
< 25 nM	< 25 nM	< 25 nM	O=C(Nc1ccc(F)c(OC(F)(F)F)c1)c1csc2c1CCN(Cc1cncnc1)C2 [Example 10, N-(4-fluoro-3-(trifluoromethoxy)phenyl)-6-(pyrimidin-5-ylmethyl)-4,5,6,7-tetrahydrothieno[2,3-c]pyridine-3-carboxamide]
< 25 nM	< 25 nM	25 to 50 nM	O=C(Nc1cc(F)cc(OC(F)F)c1)c1csc2c1CCN(Cc1cncnc1)C2 [Example 12, N-(3-(difluoromethoxy)-5-fluorophenyl)-6-(pyrimidin-5-ylmethyl)-4,5,6,7-tetrahydrothieno[2,3-c]pyridine-3-carboxamide]
< 25 nM	< 25 nM	< 25 nM	Nc1ncc(CN2CCc3c(C(=O)Nc4ccc(Cl)c(C(F)(F)F)c4)csc3C2)cn1 [Example 61, 6-((2-aminopyrimidin-5-yl)methyl)-N-(4-chloro-3-(trifluoromethyl)phenyl)-4,5,6,7-tetrahydrothieno[2,3-c]pyridine-3-carboxamide]
< 25 nM	< 25 nM	< 25 nM	Nc1ncc(CN2CCc3c(C(=O)Nc4cncc(OC(F)(F)F)c4)csc3C2)cn1 [Example 60, 6-((2-aminopyrimidin-5-yl)methyl)-N-(5-(trifluoromethoxy)pyridin-3-yl)-4,5,6,7-tetrahydrothieno[2,3-c]pyridine-3-carboxamide]
< 25 nM	< 25 nM	50 to 80 nM	Cc1cncc(CN2CCc3c(C(=O)Nc4cccc(C(F)(F)F)c4)csc3C2)c1 [Example 22, 6-((5-methylpyridin-3-yl)methyl)-N-(3-(trifluoromethyl)phenyl)-4,5,6,7-tetrahydrothieno[2,3-c]pyridine-3-carboxamide]
< 25 nM	< 25 nM	25 to 50 nM	Cc1cn(-c2cc(NC(=O)c3csc4c3CCN(Cc3cncnc3)C4)cc(C(F)(F)F)c2)cn1 [Example 3, N-(3-(4-methyl-1H-imidazol-1-yl)-5-(trifluoromethyl)phenyl)-6-(pyrimidin-5-ylmethyl)-4,5,6,7-tetrahydrothieno[2,3-c]pyridine-3-carboxamide]
< 25 nM	25 to 50 nM	50 to 80 nM	Nc1ncc(CN2CCc3c(C(=O)Nc4cncc(C(F)(F)F)c4)csc3C2)cn1 [Example 35, 6-((2-aminopyrimidin-5-yl)methyl)-N-(5-(trifluoromethyl)pyridin-3-yl)-4,5,6,7-tetrahydrothieno[2,3-c]pyridine-3-carboxamide]
< 25 nM	< 25 nM	25 to 50 nM	CN(C)[C@@H]1CCN(Cc2cc(NC(=O)c3csc4c3CCN(Cc3cnc(N)nc3)C4)cc(C(F)(F)F)c2)C1 [Example 50, (R)-6-((2-aminopyrimidin-5-yl)methyl)-N-(3-((3-(dimethylamino)pyrrolidin-1-yl)methyl)-5-(trifluoromethyl)phenyl)-4,5,6,7-tetrahydrothieno[2,3-c]pyridine-3-carboxamide]
< 25 nM	< 25 nM	< 25 nM	Nc1ncccc1CN1CCc2c(C(=O)Nc3cc(F)cc(C(F)(F)F)c3)csc2C1 [Example 43, 6-((2-aminopyridin-3-yl)methyl)-N-(3-fluoro-5-(trifluoromethyl)phenyl)-4,5,6,7-tetrahydrothieno[2,3-c]pyridine-3-carboxamide]
